*1 amine or outer side, *2 acyl side, *3 side chain or, on linkers, in order; H or OH if unused. Where a SMILES comes first, the peptide text is derived from it. Bridges are numbered along the chain shown (N, C = ends). The star is where a group is joined. Staurosporine = CO[C@@H]1[C@H](N(C)*)C[C@H]2O[C@]1(C)n1c3ccccc3c3c4c(c5c6ccccc6n2c5c31)C(=O)NC4; Suc = O=C(CCC(=O)[*:2])[*:1]; βAla = NCCC(=O)O
What was measured:
[1] = Ratio of compound IC50 to bivalent ligand 1 IC50 for PKA
[2] = Noncompetitive inhibition of PKA assessed as [gamma-32P]ATP labeling of kemptide by liquid scintillation counting
[3] = Mixed inhibition of PKA assessed as [gamma-32P]ATP labeling of kemptide by liquid scintillation counting
[4] = Competitive inhibition of PKA assessed as [gamma-32P]ATP labeling of kemptide by liquid scintillation counting
[5] = Uncompetitive inhibition of PKA assessed as [gamma-32P]ATP labeling of kemptide by liquid scintillation counting
[6] = Ratio of inhibition of PKA in presence of DTT to inhibition of PKA in absence of DTT

SMILES	Ki [2]	Km [2]	Ratio [6]	also measured
CC(C)[C@@H]1NC(=O)[C@H](CCCNC(=N)N)NC(=O)[C@H](Cc2ccccc2)NC(=O)[C@H](C(C)C)NC(=O)[C@@H](N)CSSC[C@@H](C(=O)NCC(N)=O)NC(=O)CNC(=O)[C@H](Cc2ccccc2)NC1=O (HELM PEPTIDE1{C.V.F.R.V.F.G.C.G.[am]}$PEPTIDE1,PEPTIDE1,1:R3-8:R3$$$V2.0)	85.6 µM	13.3 µM		Ratio IC50 [1]: > 21000
CO[C@@H]1[C@H](N(C)C(=O)CCC(=O)NCCCOCCCNC(=O)COCC(=O)N[C@H]2CSSC[C@@H](C(=O)NCC(N)=O)NC(=O)CNC(=O)[C@H](Cc3ccccc3)NC(=O)[C@H](C(C)C)NC(=O)[C@H](CCCNC(=N)N)NC(=O)[C@H](Cc3ccccc3)NC(=O)[C@H](C(C)C)NC2=O)C[C@H]2O[C@]1(C)n1c3ccccc3c3c4c(c5c6ccccc6n2c5c31)C(=O)NC4 (HELM PEPTIDE1{[CO[C@@H]1[C@H](N(C)C(=O)CCC(=O)NCCCOCCCNC(=O)COCC(=O)[*:2])C[C@H]2O[C@]1(C)n1c3ccccc3c3c4c(c5c6ccccc6n2c5c31)C(=O)NC4].C.V.F.R.V.F.G.C.G.[am]}$PEPTIDE1,PEPTIDE1,2:R3-9:R3$$$V2.0)	0.002 µM	12 µM		Km [3]: 11.2 µM; Ki [4]: 10.1 µM; Km [5]: 13.9 µM
CO[C@@H]1[C@H](N(C)C(=O)CCC(=O)NCCC(=O)NCCC(=O)NCCC(=O)NCCC(=O)NCCC(=O)NCCC(=O)NCCC(=O)NCCC(=O)NCCC(=O)N[C@H]2CSSC[C@@H](C(=O)NCC(N)=O)NC(=O)CNC(=O)[C@H](Cc3ccccc3)NC(=O)[C@H](C(C)C)NC(=O)[C@H](CCCNC(=N)N)NC(=O)[C@H](Cc3ccccc3)NC(=O)[C@H](C(C)C)NC2=O)C[C@H]2O[C@]1(C)n1c3ccccc3c3c4c(c5c6ccccc6n2c5c31)C(=O)NC4 ({Staurosporine-Suc-βAla-βAla-βAla-βAla-βAla-βAla-βAla-βAla-βAla}-CVFRVFGCG-NH2; disulfide 1-8)			2.7	
CO[C@@H]1[C@H](N(C)C(=O)CCC(=O)NCCC(=O)NCCC(=O)NCCC(=O)NCCC(=O)NCCC(=O)N[C@H]2CSSC[C@@H](C(=O)NCC(N)=O)NC(=O)CNC(=O)[C@H](Cc3ccccc3)NC(=O)[C@H](C(C)C)NC(=O)[C@H](CCCNC(=N)N)NC(=O)[C@H](Cc3ccccc3)NC(=O)[C@H](C(C)C)NC2=O)C[C@H]2O[C@]1(C)n1c3ccccc3c3c4c(c5c6ccccc6n2c5c31)C(=O)NC4 ({Staurosporine-Suc-βAla-βAla-βAla-βAla-βAla}-CVFRVFGCG-NH2; disulfide 1-8)			2.7	
CO[C@@H]1[C@H](N(C)C(=O)CCC(=O)NCCC(=O)NCCC(=O)NCCC(=O)N[C@H]2CSSC[C@@H](C(=O)NCC(N)=O)NC(=O)CNC(=O)[C@H](Cc3ccccc3)NC(=O)[C@H](C(C)C)NC(=O)[C@H](CCCNC(=N)N)NC(=O)[C@H](Cc3ccccc3)NC(=O)[C@H](C(C)C)NC2=O)C[C@H]2O[C@]1(C)n1c3ccccc3c3c4c(c5c6ccccc6n2c5c31)C(=O)NC4 ({Staurosporine-Suc-βAla-βAla-βAla}-CVFRVFGCG-NH2; disulfide 1-8)			2.7	
CC(C)C[C@H](NC(=O)[C@H](CO)NC(=O)[C@H](C)NC(=O)[C@H](CCCNC(=N)N)NC(=O)[C@H](CCCNC(=N)N)NC(=O)[C@@H](N)CC(C)C)C(=O)NCC(=O)O [KEMPTIDE]	86 µM	13.3 µM		
